Reference: patent US20250235424A1, “PHARMACEUTICAL COMPOSITION CONTAINING DOCETAXEL OR PHARMACEUTICALLY ACCEPTABLE SALT THEREOF AND PREPARATION METHOD THEREFOR” (WEBIOTREE CO., LTD, priority 2022, published 2025)

Experiments:
[1] = In-vivo pharmacokinetic analysis (beagle), single oral administration; conditions: dog, plasma, beagles, Docetaxel PO 50 mg/kg
From the text: The compositions of Example 83 and Comparative Example 1 were single orally administered to beagles to obtain plasma drug concentration information. The results are shown in Tables 12 and 13 below and FIGS. 8 and 9.

in vivo = conditions: rat, po, 50 mg/kg
Protocol: The graphs of FIGS. 1, 3, 5, and 6 show the docetaxel concentrations in plasma over time in rats, which were measured by collecting blood at 0 hr, 0.25 hr, 0.5 hr, 1 hr, 2 hr, 4 hr, 6 hr, 8 hr, and 12 hr.

AUC(0-t) [1]: 1.86 ng·h/mL
Cmax [1]: 0.5 ng/mL
Tmax [1]: 3.5 h
concentration at 0.25 h ([1]; 0.25 h, mean n = 2): 0.239 ng/mL
concentration at 0.5 h ([1]; 0.5 h, mean n = 2): 0.219 ng/mL
concentration at 1 h ([1]; 1 h, mean n = 2): 0.243 ng/mL
concentration at 2 h ([1]; 2 h, mean n = 2): 0.14 ng/mL
concentration at 4 h ([1]; 4 h, mean n = 2): 0.621 ng/mL
concentration at 6 h ([1]; 6 h, mean n = 2): 0.675 ng/mL
concentration at 8 h ([1]; 8 h, mean n = 2): 0.222 ng/mL
AUC(0-t) (in vivo): 0.85 ng·h/mL
Cmax (in vivo): 0.12 ng/mL
Tmax (in vivo): 12 h
SMILES: CC(=O)O[C@@]12CO[C@@H]1C[C@H](O)[C@@]1(C)C(=O)[C@H](O)C3=C(C)[C@@H](OC(=O)[C@H](O)[C@@H](NC(=O)OC(C)(C)C)c4ccccc4)C[C@@](O)([C@@H](OC(=O)c4ccccc4)[C@H]21)C3(C)C [Comparative Example 1, Docetaxel]
